From the Deep4Chem optical property database

Assay: solvent given as SMILES

## C(=C\c1ccc(-c2ccccc2)cc1)/c1ccc(Oc2ccc3ccccc3c2-c2c(Oc3ccc(/C=C/c4ccc(-c5ccccc5)cc4)cc3)ccc3ccccc23)cc1
In ClCCl
  emission maximum: 385 nm

## N#Cc1ccc(N/N=C/c2ccc3ccccc3c2O)cc1
In CC#N
  emission maximum: 446 nm
In CCCCCC
  emission maximum: 415 nm
In CO
  emission maximum: 482 nm
In CS(C)=O
  emission maximum: 456 nm
In ClC(Cl)Cl
  emission maximum: 425 nm

## CCCCOC(=O)c1cc(Oc2ccc(OC)cc2)c2c3c(Cl)cc4c5c(cc(Cl)c(c6c(Oc7ccc(OC)cc7)cc(C(=O)OCCCC)c1c26)c53)C(=O)N(c1c(C(C)C)cccc1C(C)C)C4=O
In Cc1ccccc1
  emission maximum: 599 nm

## CN(C)c1ccc(-c2nc3nccnc3n2-c2ccccc2)cc1
In CC#N
  emission maximum: 477 nm

## N#CC(C#N)=Cc1ccc(-c2ccc(-c3nc4ccccc4s3)c(O)c2)s1
In CCO
  emission maximum: 499 nm
In ClCCl
  emission maximum: 503 nm
In O
  emission maximum: 609 nm

## O=S(=O)([O-])c1cc(S(=O)(=O)Cl)ccc1C1=c2cc3c4c(c2Oc2c1cc1c5c2CCCN5CCC1)CCC[N+]=4CCC3
In O
  emission maximum: 615 nm

## CC1(C)c2ccccc2N(c2ccc3c(c2)c2ccccc2n2c4ccccc4nc32)c2ccccc21
In Cc1ccccc1
  emission maximum: 437 nm
In O=P(c1ccccc1)(c1ccccc1)c1ccccc1Oc1ccccc1P(=O)(c1ccccc1)c1ccccc1
  emission maximum: 447.06 nm

## COC(C)CC1=N/C(=C\c2cccc(N(C)C)c2)C(=O)N1C (stereo not drawn)
In C1CCOC1
  emission maximum: 569 nm
In CC#N
  emission maximum: 632 nm
In CCCCCC
  emission maximum: 495 nm

## Cc1ccc(N2C(c3ccccc3N(C)C)=NC(c3ccccc3)C2c2ccccc2)cc1 (stereo not drawn)
In Cc1ccccc1
  emission maximum: 422 nm

## Nc1ccc(-c2ccc(N)cc2)cc1
In C1CCOC1
  emission maximum: 394 nm
In C1COCCO1
  emission maximum: 392 nm
In CC#N
  emission maximum: 393 nm
In CCCCCC
  emission maximum: 373 nm
In CCOC(C)=O
  emission maximum: 391 nm
In CN(C)C=O
  emission maximum: 403 nm
In CO
  emission maximum: 397 nm
In CS(C)=O
  emission maximum: 404 nm
In Cc1ccccc1
  emission maximum: 395 nm
In ClC(Cl)Cl
  emission maximum: 384 nm
In ClCCl
  emission maximum: 384 nm
In O
  emission maximum: 401 nm

## N#C[Se]CCCCCOc1ccc2ccc(=O)oc2c1
In C1CCCCC1
  emission maximum: 378 nm
In C1CCOC1
  emission maximum: 391 nm
In C1COCCO1
  emission maximum: 386 nm
In CC#N
  emission maximum: 387 nm
In CCCCCCC
  emission maximum: 391 nm
In CCO
  emission maximum: 386 nm
In CN(C)C=O
  emission maximum: 396 nm
In CO
  emission maximum: 391 nm
In O
  emission maximum: 397 nm
In OCCO
  emission maximum: 392 nm

## CCN(C)c1ccc(C2=C3C(C)=CC(/C=C/c4ccc(OCCCN=[N+]=[N-])cc4)=[N+]3[B-](F)(F)n3c(C)cc(C)c32)cc1
In CO
  emission maximum: 586 nm

## CCCCCCCCCCOc1ccc2cc(C3=C4C(=O)N(CC(OCC)OCC)C(c5cc6ccc(OCCCCCCCCCC)cc6o5)=C4C(=O)N3CC(OCC)OCC)oc2c1
In ClC(Cl)Cl
  emission maximum: 613 nm

## COc1ccc(-c2[nH]c(=O)n3c2-c2ccccc2C3=O)c(OC)c1
In CC#N
  emission maximum: 492 nm
In CO
  emission maximum: 507 nm
In ClCCl
  emission maximum: 488 nm

## F[B-]1(F)N(c2ccccc2)c2cccc3ccc4ccc[n+]1c4c23
In ClCCl
  emission maximum: 584 nm

## C#CCOc1ccc(/C=C/C2=[N+]3C(=C(c4ccc(N5CCCCC5)cc4)c4c(C)cc(C)n4[B-]3(F)F)C(C)=C2)cc1
In CO
  emission maximum: 582 nm

## CN1c2cc3nc4cc(Br)c(Br)cc4nc3cc2N(C)C1(C)C
In CCO
  emission maximum: 500 nm

## CCCCCCCCCC1(CCCCCCCCC)c2cc(C#Cc3ccc(C#Cc4ccc(N(CCCCCC)CCCCCC)cc4)cc3)ccc2-c2ccc(C#Cc3ccc(C#Cc4ccc(N(CCCCCC)CCCCCC)cc4)cc3)cc21
In Cc1ccccc1
  emission maximum: 433 nm

## Cc1ccc(-c2ccc(/C=C/c3ccc([N+](=O)[O-])cc3)cn2)nc1
In CC#N
  emission maximum: 551 nm

## C[Si](C)(C)c1ccc(-c2nc3ccccc3n2-c2ccccc2)cc1
In ClCCl
  emission maximum: 358 nm

## O=C1c2ccccc2-c2ccccc21
In C1CCCCC1
  emission maximum: 463 nm
In CC#N
  emission maximum: 507 nm
In CCO
  emission maximum: 553 nm
In c1ccccc1
  emission maximum: 485 nm

## COc1ccccc1-c1nc2c3cccnc3c3ncccc3c2n1-c1ccccc1
In Cc1ccccc1
  emission maximum: 396 nm

## CCCn1c2cccc3c2[c+]2c4c1cccc4n(CCC)c1cccc(c12)n3CCC
In CC#N
  emission maximum: 557 nm

## COc1ccc(/C=C/C2=NC(=C\c3ccncc3)/C(=O)N2C)cc1
In C1COCCO1
  emission maximum: 564 nm
In CC#N
  emission maximum: 574 nm
In CCO
  emission maximum: 570 nm
In CCOC(C)=O
  emission maximum: 566 nm
In O
  emission maximum: 577 nm

## CC(C)(C)c1cc(C(C)(C)C)c(-c2nnc(-c3ccc(-n4c5ccccc5c5ccccc54)cc3)o2)c(C(C)(C)C)c1
In CCO
  emission maximum: 432 nm
In Cc1ccccc1
  emission maximum: 376 nm

## Cc1cc2nc3c(=O)[nH]c(=O)nc-3n(C)c2cc1C
In CC#N
  emission maximum: 533 nm

## Oc1ccc2ccccc2c1/C=N/c1ccccc1/N=C/c1c(O)ccc2ccccc12
In CC#N
  emission maximum: 496 nm

## O=C1c2ccccc2-c2c(-c3ccc([N+](=O)[O-])cc3)c(-c3ccc([N+](=O)[O-])cc3)c(-c3ccccc3)c3cccc1c23
In CC#N
  emission maximum: 496 nm
In CO
  emission maximum: 509 nm
